Data reported in US20220185744A1, “FERTILISING COMPOSITION WHICH INCLUDES A PLANT-ASSIMILABLE PHOSPHORUS AND CALCIUM POTENTIATOR AND USE THEREOF” (priority 2019, published 2022).

Test system: maize plants
Assay: Pot trial: single root-exudate metabolites applied to soil, dry biomass of maize plants at 6 weeks
Type: in vivo
Conditions: for Dry biomass of maize plants at 6 weeks of growth, dry weight: metabolite 1 kg/ha in pot with 3 kg soil (assimilable P 0.5 ppm), triple superphosphate 100 P2O5 units/ha
Description: These metabolites were: gluconic acid, glyceric acid, lactic acid, glucose, threonic acid, fructose, aspartic acid, serine, glycerol, arabinose and glutamine. […] The effect of the metabolites was compared with a negative control (no treatment) and a positive control with a conventional phosphate fertiliser (triple superphosphate at a dose of 100 phosphorus fertiliser units —P2O5— per hectare). […] This level of assimilable phosphorus corresponds to 4.5 kg of P2O5 per hectare (considering 30 centimetres of arable soil and an average density of 1,300 kg/m^3, the mass per hectare would be approximately 3,900 tonnes).

SMILES | Dry biomass of maize plants at 6 weeks of growth, dry weight [g] | Growth enhancement in maize (in words) (1 kg/ha, pot trial)
O=C[C@@H](O)[C@H](O)[C@H](O)CO [Arabinose] | 1.26 | 
N[C@@H](CC(=O)O)C(=O)O [Aspartic acid] | 1.16 | 
O=C(CO)[C@@H](O)[C@H](O)[C@H](O)CO [Fructose] | 1.38 | 
O=C(O)[C@H](O)[C@@H](O)[C@H](O)[C@H](O)CO [Gluconic acid] | 1.77 | 
NC(=O)CC[C@H](N)C(=O)O [Glutamine] | 1.55 | 
O=C(O)C(O)CO (centres unmarked) [Glyceric acid, 2,3-dihydroxypropanoic acid] | 1.93 | the most growth-enhancing metabolite in maize
OCC(O)CO [Glycerol] | 1.30 | 
CC(O)C(=O)O (centres unmarked) [Lactic acid] | 1.73 | 
N[C@@H](CO)C(=O)O [Serine] | 1.31 | 
O=C(O)[C@@H](O)[C@H](O)CO [Threonic acid] | 1.14 | 
